Laboratory results taken from PMC8068801, “Novel Benzenesulfonate Scaffolds with a High Anticancer Activity and G2/M Cell Cycle Arrest” (Cancers, 2021).
Where two headings read alike, the source gives them in different places.

Tests used:
[1] = test system: K562 cells; assay: MTS cytotoxicity assay, K562; type: cell-based, human; details: for IC50: Homo sapiens, K562, 72 h incubation, MTS; for Selectivity index, K562: normal fibroblasts NHDF vs K562
Text: (§1) M. Rusin from the Maria Sklodowska-Curie Memorial Cancer Centre and Institute of Oncology in Gliwice, Poland. […] G. Kramer-Marek from the Institute of Cancer Research in London, United Kingdom. The human suspension chronic myelogenous leukemia cell line K562 and pancreas ductal adenocarcinoma cell line PANC-1 were purchased from Sigma-Aldrich (St. Louis, MO, USA), while the normal human dermal fibroblasts cell line NHDF were purchased from PromoCell. […] Each medium contained a combination of two antibiotics: penicillin and streptomycin (1% v/v; Gibco). All of these cell lines were grown under standard conditions at 37 °C with a 5% CO2 humidified atmosphere. Moreover, all of the cell lines were routinely tested for mycoplasma using the PCR technique with specific Mycoplasma primers to confirm that there was no contamination.
(§2) The assay was performed following a 72 h incubation with the various concentrations of the tested compounds. Then, 100 µL DMEM without phenol red with 20 µL of the CellTiter 96®AQueous One Solution-MTS (Promega, Promega, WI, USA) was added to each well and incubated for 1 h or 3 h (PANC-1) at 37 °C. The optical densities of the samples were measured at 490 nm using a multi-plate reader (Synergy 4, BioTek, Winooski, VT, USA). […] Each individual compound was tested in triplicate in a single experiment with each experiment being performed three or four times.

[2] = test system: HCT 116 p53^+/+ cells; assay: MTS cytotoxicity assay, HCT 116 p53+/+; type: cell-based, human; details: for IC50: Homo sapiens, HCT 116 p53^+/+, 72 h incubation, MTS
Text: as §1, §2

[3] = test system: HCT 116 p53^−/− cells; assay: MTS cytotoxicity assay, HCT 116 p53-/-; type: cell-based, human; details: for IC50: Homo sapiens, HCT 116 p53^−/−, 72 h incubation, MTS; for Selectivity index, HCT 116 p53 −/−: NHDF vs HCT 116 p53 −/−
Text: as §1, §2

[4] = test system: MCF-7 cells; assay: MTS cytotoxicity assay, MCF-7; type: cell-based, human; details: for IC50: Homo sapiens, MCF7, MCF-7, 72 h incubation, MTS; for Selectivity index, MCF-7: NHDF vs MCF-7
Text: as §1, §2

[5] = test system: A549 cells; assay: MTS cytotoxicity assay, A549; type: cell-based, human; details: for IC50: A549, 72 h incubation, MTS; for Selectivity index, A549: NHDF vs A549
Text: as §1, §2

[6] = test system: U-251 cells; assay: MTS cytotoxicity assay, U-251; type: cell-based, human; details: for IC50: Homo sapiens, U-251, 72 h incubation, MTS
Text: as §1, §2

[7] = test system: PANC-1 cells; assay: MTS cytotoxicity assay, PANC-1; type: cell-based, human; details: for IC50: Homo sapiens, PANC-1, 72 h incubation, MTS
Text: as §1, §2

[8] = test system: NHDF cells; assay: MTS cytotoxicity assay, normal fibroblasts NHDF; type: cell-based; details: NHDF normal human fibroblasts, 72 h incubation
Text: as §1, §2

[9] = biological target: T1, ABL1 (Homo sapiens, UniProt P00519); assay: Tyrosine kinase assay (Kinase Selectivity TK-2, ADP-Glo); type: biochemical; details: read-out: Inhibitory Effect of the Tyrosine Kinase Activity, ABL1
T1 construct: purchased Promega
T1 sequence (P00519 whole entry): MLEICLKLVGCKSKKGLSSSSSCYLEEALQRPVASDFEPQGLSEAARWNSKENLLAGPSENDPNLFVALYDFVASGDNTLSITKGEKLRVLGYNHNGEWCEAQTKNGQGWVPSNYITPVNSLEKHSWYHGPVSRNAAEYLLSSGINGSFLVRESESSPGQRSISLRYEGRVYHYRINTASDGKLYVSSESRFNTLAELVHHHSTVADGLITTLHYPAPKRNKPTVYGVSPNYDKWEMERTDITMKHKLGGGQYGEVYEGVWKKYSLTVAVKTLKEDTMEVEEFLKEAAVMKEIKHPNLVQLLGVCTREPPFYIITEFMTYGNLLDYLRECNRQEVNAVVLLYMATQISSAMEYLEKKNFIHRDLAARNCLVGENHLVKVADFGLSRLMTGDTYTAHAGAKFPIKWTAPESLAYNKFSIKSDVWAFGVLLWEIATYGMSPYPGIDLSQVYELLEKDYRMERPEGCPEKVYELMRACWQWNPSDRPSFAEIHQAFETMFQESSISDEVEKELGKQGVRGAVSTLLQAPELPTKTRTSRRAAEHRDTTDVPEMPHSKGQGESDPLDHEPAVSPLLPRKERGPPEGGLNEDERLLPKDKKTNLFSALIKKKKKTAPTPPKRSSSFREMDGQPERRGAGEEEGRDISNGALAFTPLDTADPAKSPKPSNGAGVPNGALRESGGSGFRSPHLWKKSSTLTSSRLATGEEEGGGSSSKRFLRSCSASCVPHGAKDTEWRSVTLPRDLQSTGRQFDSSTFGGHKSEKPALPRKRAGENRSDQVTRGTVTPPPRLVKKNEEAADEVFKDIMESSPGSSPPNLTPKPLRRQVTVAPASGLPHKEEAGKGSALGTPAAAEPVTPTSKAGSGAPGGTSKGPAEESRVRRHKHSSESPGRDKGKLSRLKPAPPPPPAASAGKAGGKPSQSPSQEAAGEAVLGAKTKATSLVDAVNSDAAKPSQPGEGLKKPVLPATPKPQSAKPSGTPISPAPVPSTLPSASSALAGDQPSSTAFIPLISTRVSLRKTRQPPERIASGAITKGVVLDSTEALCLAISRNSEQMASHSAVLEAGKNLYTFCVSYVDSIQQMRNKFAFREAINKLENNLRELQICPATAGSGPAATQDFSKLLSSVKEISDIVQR
Protocol: (§3) Assays using the Kinase Selectivity TK-2 profiling systems and ADP-Glo Kinase Assay (both from Promega) were performed to determine the inhibition of the non-receptor tyrosine kinases. The protocol was previously designed and described by our group in reports. The experiments were performed at least four times. The data are expressed as the percentage of the inhibition activity of tyrosine kinase after treatment with the tested derivatives.

[10] = biological target: T2, BRK (Homo sapiens, UniProt Q13882); assay: as above; type: biochemical; details: read-out: Inhibitory Effect of the Tyrosine Kinase Activity, BRK
T2 construct: purchased Promega
T2 sequence (Q13882 whole entry): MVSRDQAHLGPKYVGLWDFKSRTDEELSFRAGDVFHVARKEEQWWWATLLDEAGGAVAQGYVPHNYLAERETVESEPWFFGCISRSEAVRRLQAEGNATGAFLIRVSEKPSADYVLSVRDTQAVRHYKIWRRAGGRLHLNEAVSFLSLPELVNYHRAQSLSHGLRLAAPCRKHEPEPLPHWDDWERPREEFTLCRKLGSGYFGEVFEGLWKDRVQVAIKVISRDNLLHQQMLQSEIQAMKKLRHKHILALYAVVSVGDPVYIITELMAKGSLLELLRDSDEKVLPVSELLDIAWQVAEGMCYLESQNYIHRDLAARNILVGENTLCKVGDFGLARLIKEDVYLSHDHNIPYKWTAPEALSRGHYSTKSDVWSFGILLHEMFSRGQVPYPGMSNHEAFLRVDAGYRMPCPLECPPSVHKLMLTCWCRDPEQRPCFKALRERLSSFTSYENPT
Protocol: as §3

[11] = biological target: T3, BTK (Homo sapiens, UniProt Q06187); assay: as above; type: biochemical; details: read-out: Inhibitory Effect of the Tyrosine Kinase Activity, BTK
T3 construct: purchased Promega
T3 sequence (Q06187 whole entry): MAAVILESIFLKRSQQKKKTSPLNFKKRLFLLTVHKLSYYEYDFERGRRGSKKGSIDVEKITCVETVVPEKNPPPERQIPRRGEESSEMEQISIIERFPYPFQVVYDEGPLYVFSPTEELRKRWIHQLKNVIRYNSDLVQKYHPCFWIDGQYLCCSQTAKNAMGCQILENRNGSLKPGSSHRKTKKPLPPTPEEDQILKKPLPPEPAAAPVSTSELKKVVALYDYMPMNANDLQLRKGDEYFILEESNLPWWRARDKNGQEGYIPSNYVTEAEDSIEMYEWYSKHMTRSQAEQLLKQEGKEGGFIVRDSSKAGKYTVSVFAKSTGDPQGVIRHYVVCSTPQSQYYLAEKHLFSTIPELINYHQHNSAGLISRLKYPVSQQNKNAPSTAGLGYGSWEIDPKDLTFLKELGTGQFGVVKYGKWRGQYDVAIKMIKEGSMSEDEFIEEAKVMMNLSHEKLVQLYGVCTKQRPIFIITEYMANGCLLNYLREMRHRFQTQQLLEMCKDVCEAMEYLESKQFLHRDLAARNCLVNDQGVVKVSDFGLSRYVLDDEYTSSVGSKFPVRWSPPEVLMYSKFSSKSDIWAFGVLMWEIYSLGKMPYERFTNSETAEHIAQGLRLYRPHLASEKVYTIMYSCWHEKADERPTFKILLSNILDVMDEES
Protocol: as §3

[12] = biological target: T4, CSK (Homo sapiens, UniProt P41240); assay: as above; type: biochemical; details: read-out: Inhibitory Effect of the Tyrosine Kinase Activity, CSK
T4 construct: purchased Promega
Protocol: as §3

[13] = biological target: T5, Fyn A (Homo sapiens, UniProt P06241); assay: as above; type: biochemical; details: read-out: Inhibitory Effect of the Tyrosine Kinase Activity, Fyn A
T5 construct: purchased Promega
T5 sequence (P06241 whole entry): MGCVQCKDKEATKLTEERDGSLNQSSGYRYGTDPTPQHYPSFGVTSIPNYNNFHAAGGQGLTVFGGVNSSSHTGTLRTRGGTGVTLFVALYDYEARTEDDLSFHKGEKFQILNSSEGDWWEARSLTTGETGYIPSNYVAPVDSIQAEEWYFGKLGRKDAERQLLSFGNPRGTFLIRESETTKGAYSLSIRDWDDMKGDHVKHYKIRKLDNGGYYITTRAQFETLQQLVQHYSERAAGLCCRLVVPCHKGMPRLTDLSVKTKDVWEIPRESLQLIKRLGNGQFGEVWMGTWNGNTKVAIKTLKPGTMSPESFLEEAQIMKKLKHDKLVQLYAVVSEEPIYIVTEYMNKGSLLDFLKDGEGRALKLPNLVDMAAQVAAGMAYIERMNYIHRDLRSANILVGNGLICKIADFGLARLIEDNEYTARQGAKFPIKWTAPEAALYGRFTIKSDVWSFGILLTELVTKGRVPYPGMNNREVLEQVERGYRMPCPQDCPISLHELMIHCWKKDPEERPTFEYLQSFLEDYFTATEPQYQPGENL
Protocol: as §3

[14] = biological target: T6, Lck (Homo sapiens, UniProt P06239); assay: as above; type: biochemical; details: read-out: Inhibitory Effect of the Tyrosine Kinase Activity, Lck
T6 construct: purchased Promega
T6 sequence (P06239 whole entry): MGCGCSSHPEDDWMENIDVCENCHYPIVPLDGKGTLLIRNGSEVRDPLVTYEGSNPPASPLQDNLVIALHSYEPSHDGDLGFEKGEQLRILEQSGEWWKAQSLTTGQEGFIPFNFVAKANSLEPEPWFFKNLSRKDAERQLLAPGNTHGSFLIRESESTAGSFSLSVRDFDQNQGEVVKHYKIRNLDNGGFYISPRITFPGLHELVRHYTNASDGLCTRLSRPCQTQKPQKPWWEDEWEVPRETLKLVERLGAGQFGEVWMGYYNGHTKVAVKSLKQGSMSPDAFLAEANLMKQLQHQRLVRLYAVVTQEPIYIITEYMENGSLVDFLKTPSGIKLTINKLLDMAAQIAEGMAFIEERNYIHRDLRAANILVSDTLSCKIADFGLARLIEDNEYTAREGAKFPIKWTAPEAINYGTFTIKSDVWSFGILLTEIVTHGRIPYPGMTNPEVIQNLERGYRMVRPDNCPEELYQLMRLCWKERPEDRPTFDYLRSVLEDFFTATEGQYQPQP
Protocol: as §3

[15] = biological target: T7, Lyn B (Homo sapiens, UniProt P07948); assay: as above; type: biochemical; details: read-out: Inhibitory Effect of the Tyrosine Kinase Activity, Lyn B
T7 construct: purchased Promega
T7 sequence (P07948 1-491 isoform P07948-2): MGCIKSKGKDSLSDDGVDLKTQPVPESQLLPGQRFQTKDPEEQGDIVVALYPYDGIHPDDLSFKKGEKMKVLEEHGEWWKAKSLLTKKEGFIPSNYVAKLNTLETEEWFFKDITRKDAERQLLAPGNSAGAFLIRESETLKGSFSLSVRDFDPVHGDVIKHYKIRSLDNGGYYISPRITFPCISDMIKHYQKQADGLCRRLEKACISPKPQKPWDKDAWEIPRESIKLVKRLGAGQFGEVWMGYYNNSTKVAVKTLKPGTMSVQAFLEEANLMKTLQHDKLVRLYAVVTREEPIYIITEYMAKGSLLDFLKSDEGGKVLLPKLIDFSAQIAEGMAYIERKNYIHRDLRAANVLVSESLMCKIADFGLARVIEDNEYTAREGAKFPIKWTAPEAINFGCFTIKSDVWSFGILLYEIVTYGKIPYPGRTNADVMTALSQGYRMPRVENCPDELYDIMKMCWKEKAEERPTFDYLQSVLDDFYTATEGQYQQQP
Protocol: as §3

[16] = biological target: T8, Src (Homo sapiens, UniProt P12931); assay: as above; type: biochemical; details: read-out: Inhibitory Effect of the Tyrosine Kinase Activity, Src
T8 construct: purchased Promega
T8 sequence (P12931 whole entry): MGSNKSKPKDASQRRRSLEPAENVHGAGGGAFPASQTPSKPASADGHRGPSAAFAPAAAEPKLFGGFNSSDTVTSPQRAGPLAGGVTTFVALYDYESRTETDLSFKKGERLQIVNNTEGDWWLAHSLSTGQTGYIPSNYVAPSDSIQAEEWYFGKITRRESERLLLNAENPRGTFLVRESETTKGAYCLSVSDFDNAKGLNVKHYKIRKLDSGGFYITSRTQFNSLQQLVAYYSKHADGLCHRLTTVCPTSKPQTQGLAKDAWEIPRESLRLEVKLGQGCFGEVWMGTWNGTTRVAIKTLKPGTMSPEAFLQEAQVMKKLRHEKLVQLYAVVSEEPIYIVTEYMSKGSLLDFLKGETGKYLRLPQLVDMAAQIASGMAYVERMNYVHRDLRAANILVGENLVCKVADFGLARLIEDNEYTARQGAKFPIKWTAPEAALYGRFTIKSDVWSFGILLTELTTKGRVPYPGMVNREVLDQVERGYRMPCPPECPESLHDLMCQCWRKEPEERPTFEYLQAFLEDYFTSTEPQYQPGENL
Protocol: as §3

[17] = test system: U-251 cells; assay: Cell cycle assay (Muse Cell-Cycle Kit), U-251; type: cell-based, human; details: U-251, 0.13 µM to 2 µM, 24 h; 32.3% in untreated cells
Protocol: The K562, U-251 and NHDF cells were seeded in 3 cm Petri dishes (Nunc) at a density of 250,000 cells per well and incubated under standard conditions at 37 °C for 24 h. […] After a 24 h treatment, the assays were performed using a Muse Cell-Cycle Kit (Millipore, Burlington, MA, USA) according to the supplier’s instructions. Briefly, the cells were collected, washed with cold PBS and centrifuged at 300 g for 5 min. Afterwards, the cells were fixed in ice cold 70% ethanol and stored at −20 °C overnight. The next day, the cells were washed with cold PBS, centrifuged and resuspended in 200 μL of the Muse™ Cell Cycle Reagent. The samples were incubated for 30 min at room temperature in the dark. After staining, the cellular subpopulation values in the individual cell cycle phases were estimated using a cell cycle analysis using a Muse Cell Analyzer (Millipore). The experiments were performed at least four times.

[18] = test system: A549 cells; set-up: method as in PMID 24530495; details: cited from earlier work

SMILES	inhibition at 0.5 µM [9] [%]	inhibition at 0.5 µM [10] [%]	inhibition at 0.5 µM [11] [%]	inhibition at 0.5 µM [12] [%]	inhibition at 0.5 µM [13] [%]	inhibition at 0.5 µM [14] [%]	inhibition at 0.5 µM [15] [%]	inhibition at 0.5 µM [16] [%]	IC50 [1] [µM]	Selectivity index, K562 [1]	IC50 [2] [µM]	IC50 [3] [µM]	IC50 [4] [µM]	IC50 ([5]; Homo sapiens, A549, 72 h) [µM]	Selectivity index, A549 [5]	IC50 [6] [µM]	IC50 [7] [µM]	IC50 [8] [µM]	Selectivity index, HCT 116 p53 −/− [3]	Selectivity index, MCF-7 [4]	other results
COc1ccc(/C=C/c2nc(NCCCN(C)C)c3ccccc3n2)cc1 [CP-31398, reference compound]	–	–	–	–	–	–	–	–	3.09 ± 0.36	–	18.6 ± 0.92	26.3 ± 1.41	27 ± 2.1	–	–	18.8 ± 1.65	> 25	12.3 ± 0.54	–	–	IC50 ([5]; Homo sapiens): > 25 µM
CC(=O)O[C@H]1C(=O)[C@@]2(C)[C@H]([C@H](OC(=O)c3ccccc3)[C@]3(O)C[C@H](OC(=O)[C@H](O)[C@@H](NC(=O)c4ccccc4)c4ccccc4)C(C)=C1C3(C)C)[C@]1(OC(C)=O)CO[C@@H]1C[C@@H]2O [paclitaxel, reference compound]	–	–	–	–	–	–	–	–	–	–	–	–	–	–	–	–	–	–	–	–	Fraction of cells in the G2/M phase [17]: about 69.9%
COc1c(NS(=O)(=O)c2ccc(C)cc2)cc(-c2ccc3ncnc(N4CCOCC4)c3c2)cc1C(N)=O [IV]	–	–	–	–	–	–	–	–	–	–	–	–	–	–	–	–	–	–	–	–	IC50 [18]: 2.18 µM

Second part, led by results:

inhibition at 0.5 µM [9] [%]	inhibition at 0.5 µM [10] [%]	inhibition at 0.5 µM [11] [%]	inhibition at 0.5 µM [12] [%]	inhibition at 0.5 µM [13] [%]	inhibition at 0.5 µM [14] [%]	inhibition at 0.5 µM [15] [%]	inhibition at 0.5 µM [16] [%]	SMILES	IC50 [1] [µM]	Selectivity index, K562 [1]	IC50 [2] [µM]	IC50 [3] [µM]	IC50 [4] [µM]	IC50 ([5]; Homo sapiens, A549, 72 h) [µM]	Selectivity index, A549 [5]	IC50 [6] [µM]	IC50 [7] [µM]	IC50 [8] [µM]	Selectivity index, HCT 116 p53 −/− [3]	Selectivity index, MCF-7 [4]	other results
0	20.2	8.59	20.1	0	11.2	0	0	COc1ccc(/C=C/c2nc(OS(=O)(=O)c3ccc(C)cc3)c3ccccc3n2)cc1 [BS5, 2-((E)-2-(4-methoxyphenyl)ethenyl)quinazolin-4-yl 4-methylbenzenesulfonate]	10.2 ± 0.819	2.45	> 25	> 25	> 25	> 25	1.00	> 25	> 25	> 25	–	–	–
0	26.5	30.7	0	34.1	42.6	0	2.73	COc1ccccc1/C=C/c1nc(OS(=O)(=O)c2ccc(C)cc2)c2ccc(Cl)cc2n1 [BS3, 7-chloro-2-((E)-2-(2-methoxyphenyl)ethenyl)quinazolin-4-yl 4-methylbenzenesulfonate]	0.078 ± 0.027	120.71	0.363 ± 0.028	0.239 ± 0.03	4.6 ± 1.02	7.65	1.23	1.76 ± 0.388	0.097 ± 0.03	9.42 ± 1.65	39.39	2.05	Selectivity index, HCT 116 p53+/+ ([2]; NHDF vs HCT 116 p53+/+): 25.94; IC50 [5]: 7.65 ± 0.987 µM; Selectivity index, U-251 ([6]; NHDF vs U-251): 5.36; Selectivity index, PANC-1 ([7]; NHDF vs PANC-1): 97.06
0	0	17.9	21.1	62.6	37.3	0	0	COc1ccc(/C=C/c2nc(OS(=O)(=O)c3ccc(C)cc3)c3ccccc3n2)c(OC)c1 [BS6, 2-((E)-2-(2,4-dimethoxyphenyl)ethenyl)quinazolin-4-yl 4-methylbenzenesulfonate]	2.7 ± 0.519	9.26	> 25	21.7 ± 1.19	9.79 ± 1.23	> 25	1.00	> 25	> 25	> 25	1.15	2.55	–
